Results as given in patent US7635779B2, “Oxy substituted flavones as antihyperglycemic and antidyslipidemic agents” (Council of Scientific & Industrial Research, priority 2004, dated 2009).
Where two headings read alike, the source gives them in different places.

Experiments:
[1] = test system: triton WR-1339 induced hyperlipidemic rats; experiment: Triton model, antidyslipidemic activity; type: in vivo, rat; conditions: 100 mg/kg oral, plasma after 18 h; for inhibition in vivo at 100 mg/kg: Rattus norvegicus
Procedure: Male Charles foster rats weighing 200-225 g were divided into control, hyperlipidemic and hyperlipidemic plus drug treated groups containing six animals in each group. Hyperlipidemia was induced by administration of triton WR-1339 (200 mg/kg i.p.). All animals were maintained on a special pellet diet and water ad libitum. Compounds and standard drug were macerated with 0.2% aqueous gum acacia suspension. The suspension was fed orally at the dose of 100 mg/kg simultaneously with triton in drug treated group. The animals of control group received the same amount of gum acacia by similar route of administration. At the end of the experiment, after 18 h, blood was withdrawn from retro orbital plexus and plasma was used for the assay of total cholesterol, phospholipid and triglycerides.
Cholesterol was estimated using the kit provided by Roche Diagnostics. Cholesterol esters are enzymatically hydrolyzed by cholesterol esterase (CE) to cholesterol and free fatty acids. Free cholesterol, including that originally present, is then oxidized by cholesterol oxidase (CO) to cholest-4-en-3-one and hydrogen peroxide. The hydrogen peroxide combines with hydroxy benzoic acid (HBA) and 4-aminoantipyrine (4AAA) in the presence of peroxidase (POD) to form a chromophore (quinoneimine dye), which may be quantitated at 500-505 nm. The intensity of red colour formed is directly proportional to the concentration of total cholesterol in the specimen and measured spectrophotometrically (Searcy, C. L. Diagnostic Biochemistry, 1969, McGraw Hill, New York; Ellefson, R. D.; Caraway, W. T. Fundamentals of clinical chemistry, 1976, Ed Tietz N W, 506-515.)
Triglycerides were estimated using the kit provided by Roche Diagnostics. Lipoprotein lipase hydrolyses triglycerides to yield glycerol and fatty acids. Glycerol kinase converts glycerol to glycerol-3-phosphate, which is oxidized by glycerol phosphate oxidase to dihydroxy acetone phosphate and hydrogen peroxide. In the presence of peroxidase, hydrogen peroxide oxidatively couples with 4-aminoantipyrine and 4-chloro phenol to produce red quinonimine dye. The intensity of red colour formed is directly proportional to the concentration of triglycerides in the specimen and is measured by photometrically (Wahlefeld, A. W.; Bergmeyer, H. U. Ed. Methods of enzymatic analysis, 2nd English edition, New York, N.Y., Academic press inc, 1831-1840.).
Serum (0.2 mL) and perchloric acid (1.0 mL) was digested at 180° C. for 1-1.5 h till the solution became colorless. The liberated inorganic phosphate (Pi) was measured by the method of Fiske and Subbarow (Fiske, C. H.; Subbarow, V. J. Biol. Chem. 1925, 66, 375.). 1 mL of 2.5% ammonium molybdate (prepared in 5 N sulphuric acid) and 0.5 mL reducing agent (4-amino naphthol sulphonic acid, 0.2%), sodium metabisulphite (2.4% w/v in distilled water) was added to the above tubes and mixed well. The reaction mixture was […] with 2.5 mL of triple distilled water and kept at 60° C. in water bath for 20 min. For standard, an appropriate amount of potassium dihydrogen phosphate dissolved in triple distilled water containing 2-10 μg phosphorous (Pi) was run simultaneously with the experiment tubes. The optical density of the blue colour was recorded at 620 nm against reagent blank. The values of Pi were converted into phospholipid by multiplying with 25 (a constant calibrated from Pi value of lecithin).

sucrose loaded rat = experiment: Sucrose loaded rat model (SLM), antihyperglycemic activity; type: in vivo; conditions: for inhibition in vivo at 100 mg/kg: Rattus norvegicus, po, 2 h, read-out: % Fall in blood glucose levels, SLM; for % Fall in blood glucose levels, SLM: 100 mg/kg oral, AUC vs control
Procedure: Male albino rats of Charles Foster/Wistar strain of average body weight 160±20 g were selected for this study. The blood glucose level of each animal was checked by glucometer using glucostrips (Boehringer Mannheim) after 16 h starvation. Animals showing blood glucose levels between 3.33 to 4.44 mM (60 to 80 mg/dl) were divided into groups of five to six animals in each. Animals of experimental group were administered suspension of the desired synthetic compound orally (made in 1.0% gum acacia) at a dose of 100-mg/kg-body weight. Animals of control group were given an equal amount of 1.0% gum acacia. A sucrose load (10.0 g/kg) was given to each animal orally exactly after 30 min post administration of the test sample/vehicle. Blood glucose profile of each rat was again determined at 30, 60, 90 and 120 min post administration of sucrose by glucometer. Food but not water was withheld from the cages during the course of experimentation. Quantitative glucose tolerance of each animal was calculated by Area Under Curve (AUC) method (Prism Software). Comparing the AUC of experimental and control groups determined the percentage antihyperglycemic activity. Statistical comparison was made by Dunnett's test.

[2] = test system: streptozotocin-induced diabetic rats; experiment: Sucrose-challenged streptozotocin-induced diabetic rats (STZ-S); type: in vivo, rat; conditions: 100 mg/kg oral
Procedure: Male albino rats of Sprague Dawley strain of body weight 160+20 g were selected for this study. Streptozotocin (Sigma, USA) was dissolved in 100 mM citrate buffer pH 4.5 and calculated amount of the fresh solution was injected to overnight fasted rats (45 mg/kg) intraperitoneally. Blood glucose level was checked 48 h later by glucostrips and animals showing blood glucose values between 144 to 270 mg/dl (8 to 15 mM) were included in the experiment and termed diabetic. The diabetic animals were divided into groups consisting of five to six animals in each group. Animals of experimental groups were administered suspension of the desired test samples orally (made in 1.0% gum acacia) at a dose of 100-mg/kg-body weight. Animals of control group were given an equal amount of 1.0% gum acacia. A sucrose load of 2.5-g/kg body weight was given after 30 minutes of compound administration. After 30 minutes of post sucrose load blood glucose level was again checked by glucostrips at 30, 60, 90, 120, 180, 240, 300 min and at 24 h, respectively. Animals not found diabetic after 24 hours post treatment of the test sample were not considered and omitted from the calculations and termed as non-responders. […] Food but not water was withheld from the cages during the experimentation. Comparing the AUC of experimental and control groups determined the percent antihyperglycemic activity. Statistical comparison between groups was made by Student's ‘t’ test.
As depicted in the FIGURE, a dose response curve of 34 was obtained by administering different doses of test compound to streptozotocin-induced diabetic rats (Table 6). […]

[3] = phospholipid, read-out: % Fall in lipid levels (Triton model) PL
[4] = total cholesterol, read-out: % Fall in lipid levels (Triton model) TC
[5] = triglycerides, read-out: % Fall in lipid levels (Triton model) TG

Work on `CC(C)(C)NCC(O)COc1ccc2oc(-c3ccc(O)c(O)c3)cc(=O)c2c1` (centres unmarked) [Compound 52, 6-(3-tert-Butylamino-2-hydroxy-propoxy)-3′,4′-dihydroxy-flavone] yielded an inhibition in vivo at 100 mg/kg [1, 3] of 23%, an inhibition in vivo at 100 mg/kg [1, 4] of 24% and an inhibition in vivo at 100 mg/kg [1, 5] of 25%. It also gave an inhibition in vivo at 100 mg/kg (sucrose loaded rat) of 4.96%.
With `COc1cc(-c2cc(=O)c3ccc(OCCOc4ccc(C=C5SC(=O)NC5=O)cc4)cc3o2)cc(OC)c1OC` [Compound 64, 7-{2-[4-(thiazolidin-2,4-dione-5-ylidinemethyl)-phenoxy]-ethoxy}-3′,4′,5′-trimethoxy-flavone] the “% Fall in lipid levels (Triton model) PL” value ([1]; phospholipid) was 25%, the “% Fall in lipid levels (Triton model) TC” value ([1]; total cholesterol) was 20% and the “% Fall in lipid levels (Triton model) TG” value ([1]; triglycerides) was 26%. The “% Fall in blood glucose levels, SLM” value (sucrose loaded rat) was 9.59%.
With `COc1cc(-c2cc(=O)c3ccc(OCC(O)CNC(C)(C)C)cc3o2)cc(OC)c1OC` (centres unmarked) [Compound 40, 7-(3-tert-Butylamino-2-hydroxy-propoxy)-3′,4′,5′-trimethoxy-flavone] the inhibition in vivo at 100 mg/kg [1, 3] was 26%, the inhibition in vivo at 100 mg/kg [1, 4] was 24% and the inhibition in vivo at 100 mg/kg [1, 5] was 28%. For the same compound, the melting point was 119 to 120 °C and the “% Fall in blood glucose levels, SLM” value (sucrose loaded rat) was “NIL”.
Compound `COc1cc(OC)cc(-c2cc(=O)c3ccc(OCC(O)CNC(C)C)cc3o2)c1` (centres unmarked) [Compound 44, 3′,5′-Dimethoxy-7-[2-hydroxy-3-iso-propylamino-propoxy]-flavone] has an inhibition in vivo at 100 mg/kg [1, 3] of 21%, an inhibition in vivo at 100 mg/kg [1, 4] of 17% and an inhibition in vivo at 100 mg/kg [1, 5] of 24%. It also gave a melting point of 155 to 156 °C and an inhibition in vivo at 100 mg/kg (sucrose loaded rat) of 1.36%.
With `COc1ccc(-c2cc(=O)c3ccc(OCC(O)CNC(C)C)cc3o2)cc1OC` (centres unmarked) [Compound 46, 3′,4′-Dimethoxy-7-[2-hydroxy-3-iso-propylamino-propoxy]-flavone] the melting point was 144 to 145 °C and the inhibition in vivo at 100 mg/kg (sucrose loaded rat) was 23.9%.
In the case of `COc1ccc(-c2cc(=O)c3ccc(OCCCOc4ccc(C=C5SC(=O)NC5=O)cc4)cc3o2)cc1OC` [Compound 67, 3′,4′-Dimethoxy-7-{3-[4-(thiazolidin-2,4-dione-5-ylidinemethyl)-phenoxy]-propoxy}-flavone], the “% Fall in lipid levels (Triton model) PL” value ([1]; phospholipid) is reported as 14%, the “% Fall in lipid levels (Triton model) TC” value ([1]; total cholesterol) is reported as 28% and the “% Fall in lipid levels (Triton model) TG” value ([1]; triglycerides) is reported as 21%. For the same compound, the “% Fall in blood glucose levels, STZ-S 5 h” value [2] was 18.7%, the “% Fall in blood glucose levels, STZ-S 24 h” value [2] was 13.6% and the “% Fall in blood glucose levels, SLM” value (sucrose loaded rat) was 13.60%.
In the case of `COc1cc(OC)cc(-c2cc(=O)c3ccc(OCC(O)CNC(C)(C)C)cc3o2)c1` (centres unmarked) [Compound 43, 7-[3-tert-Butylamino-2-hydroxy-propoxy]-3′,5′-dimethoxy flavone], the inhibition in vivo at 100 mg/kg [1, 3] is reported as 19%, the inhibition in vivo at 100 mg/kg [1, 4] is reported as 21% and the inhibition in vivo at 100 mg/kg [1, 5] is reported as 17%. For the same compound, the melting point was 145 to 146 °C and the “% Fall in blood glucose levels, SLM” value (sucrose loaded rat) was “NIL”.
In the case of `O=C1NC(=O)C(=Cc2ccc(OCCOc3ccc4c(=O)cc(-c5cc(OCc6ccccc6)cc(OCc6ccccc6)c5)oc4c3)cc2)S1` [Compound 62, 3′,5′-Dibenzyloxy-7-{2-[4-(thiazolidin-2,4-dione-5-ylidinemethyl)-phenoxy]-ethoxy}-flavone], the “% Fall in lipid levels (Triton model) PL” value ([1]; phospholipid) is reported as 15%, the “% Fall in lipid levels (Triton model) TC” value ([1]; total cholesterol) is reported as 15% and the “% Fall in lipid levels (Triton model) TG” value ([1]; triglycerides) is reported as 18%. The “% Fall in blood glucose levels, SLM” value (sucrose loaded rat) was “NIL”.
`COc1ccc(-c2cc(=O)c3ccc(OCC(O)CN4CCN(c5ccccc5)CC4)cc3o2)cc1OC` (centres unmarked) [Compound 47, 3′,4′-Dimethoxy-7-[2-hydroxy-3-(4-phenylpiperazin-1-yl)-propoxy]-flavone] showed an inhibition in vivo at 100 mg/kg [1, 3] of 22%, an inhibition in vivo at 100 mg/kg [1, 4] of 23% and an inhibition in vivo at 100 mg/kg [1, 5] of 19%. For the same compound, the melting point was 191 to 193 °C and the inhibition in vivo at 100 mg/kg (sucrose loaded rat) was 5.45%.
For `CC(C)(C)NCC(O)COc1ccc2c(=O)cc(-c3ccc(O)c(O)c3)oc2c1` (centres unmarked) [Compound 50, 7-(3-tert-Butylamino-2-hydroxy-propoxy)-3′,4′-dihydroxy-flavone], the inhibition in vivo at 100 mg/kg [1, 3] was 23%, the inhibition in vivo at 100 mg/kg [1, 4] was 21% and the inhibition in vivo at 100 mg/kg [1, 5] was 25%. The “% Fall in blood glucose levels, SLM” value (sucrose loaded rat) was “NIL”.
Work on `COc1cc(OC)cc(-c2cc(=O)c3ccc(OCC(O)CN4CCN(c5ccccc5)CC4)cc3o2)c1` (centres unmarked) [Compound 45, 3′,5′-Dimethoxy-7-[2-hydroxy-3-(4-phenylpiperazin-1-yl)-propoxy]-flavone] yielded an inhibition in vivo at 100 mg/kg [1, 3] of 20%, an inhibition in vivo at 100 mg/kg [1, 4] of 30% and an inhibition in vivo at 100 mg/kg [1, 5] of 31%. For the same compound, the melting point was 195 to 196 °C and the “% Fall in blood glucose levels, SLM” value (sucrose loaded rat) was “NIL”.
Compound `CC(C)NCC(O)COc1ccc2c(=O)cc(-c3ccc(O)c(O)c3)oc2c1` (centres unmarked) [Compound 51, 3′,4′-Dihydroxy-7-(2-hydroxy-3-iso-propylamino-propoxy)-flavone] has an inhibition in vivo at 100 mg/kg [1, 3] of 13%, an inhibition in vivo at 100 mg/kg [1, 4] of 15% and an inhibition in vivo at 100 mg/kg [1, 5] of 19%. The “% Fall in blood glucose levels, SLM” value (sucrose loaded rat) was “NIL”.
`CC(C)NCC(O)COc1ccc2c(=O)cc(-c3cc(OCc4ccccc4)cc(OCc4ccccc4)c3)oc2c1` (centres unmarked) [Compound 35, 3′,5′-Dibenzyloxy-7-(2-hydroxy-3-iso-propylamino-propoxy)-flavone] showed an inhibition in vivo at 100 mg/kg [1, 3] of 8%, an inhibition in vivo at 100 mg/kg [1, 4] of 13% and an inhibition in vivo at 100 mg/kg [1, 5] of 11%. For the same compound, the melting point was 173 to 174 °C and the “% Fall in blood glucose levels, SLM” value (sucrose loaded rat) was “NIL”.
With `COc1cc(OC)cc(-c2cc(=O)c3ccc(OCCCOc4ccc(C=C5SC(=O)NC5=O)cc4)cc3o2)c1` [Compound 66, 3′,5′-Dimethoxy-7-{3-[4-(thiazolidin-2,4-dione-5-ylidinemethyl)-phenoxy]-propoxy}-flavone] the “% Fall in blood glucose levels, STZ-S 5 h” value [2] was 18.9%, the “% Fall in blood glucose levels, STZ-S 24 h” value [2] was 20.2% and the “% Fall in blood glucose levels, SLM” value (sucrose loaded rat) was 28.80%.
For `O=C1NC(=O)C(=Cc2ccc(OCCOc3ccc4c(=O)cc(-c5ccc(OCc6ccccc6)c(OCc6ccccc6)c5)oc4c3)cc2)S1` [Compound 63, 3′,4′-Dibenzyloxy-7-{2-[4-(thiazolidin-2,4-dione-5-ylidinemethyl)-phenoxy]-ethoxy}-flavone], the “% Fall in blood glucose levels, SLM” value (sucrose loaded rat) was 26.0%.
